Columns and labels:
[1] = system: NOD2; assay: IRF3 induction in HEK cells with or without transfected NOD2; format: cell-based
[2] = system: PBMCs; format: cell-based
[3] = system: human hepatitis B virus; assay: Anti-HBV activity in the HBV transgenic mouse model, oral administration; format: in vivo, transgenic mice; conditions: for Liver HBV DNA Southern blot (pg/μg mean ± sd): p.o.
Protocol: (§1) Compound 6k was evaluated for anti-HBV activity in the transgenic mouse model of HBV infection. Male transgenic mouse infected with HBV, with age ranging from 78 to 108 days were used. Compound 6k was initially evaluated at a single dose of 300 mg/kg, administered daily for 14 days by oral gavage. The compounds were administered in citric acid and adefovir dipivoxil was used as a positive control. A control group which received vehicle was used a negative control. Following the treatment, mice were sacrificed and liver tissue analyzed for HBV DNA using Southern blot analysis. The data was statistically evaluated using Kruskall-Wallis non-parametric ANOVA.
(§2) (a) Male and female transgenic mice (founder 1.3.32) were infected with human hepatitis B virus. Following infection, animals were orally administered Compound 6k, or a placebo of 0.05 M citric acid, pH 2.0 once daily for 14 days. Dosage was 300 mg/kg/d for Compound 6k. The positive control, ADV, was administered at 10 mg/kg/d.
Male and female transgenic mice (founder 1.3.32) were infected with human hepatitis B virus. Following infection, animals were orally administered Compound 6k, or a placebo of 0.05 M citric add, pH 2.0 once daily for 14 days. Dosages were 100, 10.5 and 1 mg/kg/d for Compound 6K. The positive control, ADV, was administered at 10 mg/kg/d.

[4] = Weight change and apparent toxicity in orally treated HBV transgenic mice; format: in vivo
Protocol: as §1, §2
Statistical significance is indicated as *P≦0.05, **P≦0.01, ***P≦0.001 compared to placebo vehicle.

[5] = system: HBV WT; assay: HepG2.2.15 cell-based HBV assay, wild type; conditions: Hepatitis B virus
Protocol: Selected compounds were evaluated in in vitro cell-based HepG2.2.15 HBV assay.
Antiviral analysis. For the antiviral analyses, confluent cultures of 2.2.1.5 cells were maintained on 96-well flat-bottomed tissue culture plates in RPMI1640 medium with 2% fetal bovine serum. Cultures (6 per each test concentration on two replicate plates) were treated with 9 consecutive daily doses of the test compounds. Medium was changed daily with fresh test compounds. HBV nucleic acid and protein levels were measured 24 hours after the last treatment. Extracellular (virion) HBV DNA levels were assessed by quantitative blot hybridization. Intracellular HBV DNA levels were measured by quantitative Southern blot hybridization.
The uptake of neutral red dye was used to determine the relative level of toxicity 24 hours following the last treatment. The absorbance of internalized dye at […] (A510) was used for the semi-quantitative analysis. Values are presented as a percentage of the average A510 values (±standard deviations) in 9 separate cultures of untreated cells maintained on the 96-well plates seeded at the same time with the identical pool of stock cells used for the antiviral analyses and maintained in an identical manner. A total of 3 cultures were treated with each concentration of the test compound.

[6] = system: HBV-3TC-R4 LMMV; format: cell-based; conditions: Hepatitis B virus
[7] = Cytotoxicity by neutral red dye uptake in HCV replicon cultures; format: cell-based; conditions: human, AVA5 HCV replicon cell line (sub-genomic CON1, genotype 1b); parallel plates, 3-day assay; read-out: CC50, neutral red dye uptake
Protocol: Antiviral activity against HCV was assessed in a 3-day assay (Okuse, et al., 2005; Antiviral. Res. 65:23; Korba, et al., 2008, Antiviral Res. 77:56) using the stably-expressing HCV replicon cell line, AVA5 (sub-genomic (CON1), genotype 1b) (Blight, et al., 2000; Science 290:1972) maintained as sub-confluent cultures on 96-well plates. Antiviral activity was determined by blot hybridization analysis of intracellular HCV RNA (normalized to the level of cellular B-actin RNA in each culture sample). Cytotoxicity was assessed by neutral red dye uptake in cultures maintained in parallel plates.
EC50, EC90, and CC50 values were calculated by linear regression analysis (MS EXCEL®, QuattroPro®) using data combined from all treated cultures Korba & Gerin, 1992, Antivir. Res. 19:55; Okuse, et al., 2005, Antivir. Res. 65:23). […]
Combination treatments are conducted as previously described. Briefly, two agents were mixed together at a pre-determined concentration ratio. […] Analysis of drug interactions in the combination studies was determined by the use of the CALCUSYN program (Biosoft, Inc., Cambridge, United Kingdom). […]

[8] = system: HCV replicon H/FL-Neo (genotype 1a (H77), full length construct); assay: Secondary anti-HCV assay, replicon H/FL-Neo; format: cell-based; conditions: Hepatitis C virus
From the text: This assay assesses activity against additional genotypes using the format described for the primary assay. Activity against the genotype 1b HCV was included for comparison. A replicon cell line containing H/FL-Neo (genotype 1a (H77), full length construct) (Blight, et al., 2003, J. Virol. 77:3181) was used.

[9] = system: HCV; assay: Combination studies against HCV in replicon assays; format: cell-based; conditions: Hepatitis C virus, read-out: EC50 (uM), single drug
[10] = 300 mg/kg/d, oral, once daily 14 days

## CO[C@H]1C(OP(=O)(S)OC[C@H]2O[C@@H](n3cnc4c(N)ncnc43)CC2O)[C@@H](CO)O[C@H]1n1ccc(=O)[nH]c1=O (stereo partly shown) [Compound 5, 3-dApsU2′-OMe]
[1]; HEK cells transfected with NOD2
  induction of IRF3: cause induction of IRF3
[1]; NOD2 deficient HEK cells
  induction of IRF3: failed to induce IRF3
[2]
  induction of IFN: induction of IFN beta

## CO[C@H]1C(OP(=O)(OC[C@H]2O[C@@H](n3cnc4c(N)ncnc43)CC2O)SCOC(=O)OC(C)C)[C@@H](CO)O[C@H]1n1ccc(=O)[nH]c1=O (stereo partly shown) [Compound 6k]
[3]; 1 mg/kg/d, qd × 14 d
  Liver HBV DNA Southern blot (pg/μg mean ± sd): 16.4 ± 14.7 (6) pg/μg
[3]; 10 mg/kg/d, qd × 14 d (Table 2)
  Liver HBV DNA Southern blot (pg/μg mean ± sd): 3.4 ± 4.4 (7) pg/μg
[3]; 100 mg/kg/d, qd × 14 d
  Liver HBV DNA Southern blot (pg/μg mean ± sd): 7.2 ± 8.9 (6) pg/μg
[3]; 300 mg/kg daily for 14 days by oral gavage
  reduction of liver HBV DNA compared to untreated control: up to 2 log
[3]; [10]
  Liver HBV RNA (log transcripts ± sd): 10.8 ± 0.4 log transcripts
  QPCR Liver HBV DNA (pg/μg mean ± sd): 13.3 ± 12 pg/µg
[3]; 300 mg/kg/d, oral, once daily 14 days (Table 1)
  Southern blot Liver HBV DNA (pg/μg mean ± sd): 5.7 ± 3.2 pg/µg
[3]; 300 mg/kg/d, qd × 14 d (Table 2)
  Liver HBV DNA Southern blot (pg/μg mean ± sd): 4.8 ± 4.4 (2) pg/μg
[3]; oral
  EC50 when administered orally to a hepatitis B transgenic mouse model: approximately 10 mg/kg
[4]; [10]
  % weight change ± sd: 4.3 ± 1.8%
[4]; high doses employed, oral once daily 14 days
  apparent toxicity: no apparent toxicity
[5]
  EC50: 2.5 µM
  EC90: 8.5 µM
[6]
  EC50: 3.1 µM
  EC90: 9.3 µM
[7]
  CC50 at 3 day: > 100 µM
[8]
  EC50: 1 µM
  EC90: ~6 µM
[9]
  EC50: 1.5 to 2.3 µM

— patent US20150329864A1, “DESIGN OF OLIGONUCLEOTIDE ANALOGS AS THERAPEUTIC AGENTS” (SPRING BANK PHARMACEUTICALS, INC., priority 2010, published 2015)
